Converted amounts (≈) assume the structure as drawn.
Key:
Cathepsin K = biological target: T1, Cathepsin K (Homo sapiens, UniProt P43235); assay: Inhibition of 10 uM Cbz-Phe-Arg-AMC binding to human cathepsin K in fluorescence assay
T1 sequence (P43235 whole entry): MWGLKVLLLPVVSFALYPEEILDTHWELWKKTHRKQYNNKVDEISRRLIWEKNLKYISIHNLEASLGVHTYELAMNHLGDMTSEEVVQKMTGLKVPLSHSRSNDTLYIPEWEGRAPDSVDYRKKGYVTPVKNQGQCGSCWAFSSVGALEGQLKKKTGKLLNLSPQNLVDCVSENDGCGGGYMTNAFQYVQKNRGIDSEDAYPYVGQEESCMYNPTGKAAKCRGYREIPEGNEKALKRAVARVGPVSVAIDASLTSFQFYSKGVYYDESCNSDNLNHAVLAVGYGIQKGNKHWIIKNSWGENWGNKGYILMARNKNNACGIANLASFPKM

[1] = Steady state volume of distribution in rats; assay type: ADME, organism-based; conditions: rat, in vivo; read-out: Vss
[2] = Oral bioavailability in rat; assay type: ADME, organism-based; conditions: in vivo
[3] = Terminal half-life was determined in rats upon intravenous administration as a solution in 40% hydroxypropyl-beta-cyclodextrin, pH = 5.1; assay type: ADME, organism-based; conditions: rat, in vivo
[4] = Apparent permeability coefficient for apical to basolateral flux was determined by Madin-Darby canine kidney cell monolayer transport assay; assay type: ADME, cell-based, Canis lupus familiaris; conditions: dog, MDCK
[5] = Total clearance in rats; assay type: ADME, organism-based; conditions: rat, in vivo
[6] = Equilibrium solubility in fasted state-simulated intestinal fluid was determined […]; assay type: ADME, Rattus norvegicus; conditions: read-out: FS-SIF
[7] = Terminal half-life was determined in rats upon intravenous administration as a solution in 30% hydroxypropyl-beta-cyclodextrin, pH = 5.1; assay type: ADME, organism-based; conditions: rat, in vivo
[8] = biological target: Cathepsin (S and K) (Homo sapiens) (UniProt P25774+P43235); assay: Relative binding to human cathepsins S and K; assay type: protein assay
Cathepsin B = Cathepsin B (Homo sapiens, UniProt P07858); assay: Inhibition of 10 uM Cbz-Phe-Arg-AMC binding to human cathepsin B in fluorescence assay
Procathepsin L = Procathepsin L (Homo sapiens, UniProt P07711); assay: Inhibition of 5 uM Cbz-Phe-Arg-AMC human cathepsin L in fluorescence assay
[9] = biological target: T2, Pro-cathepsin H (Homo sapiens) (UniProt P09668); assay: Relative binding to human cathepsins H and K
T2 sequence (whole entry): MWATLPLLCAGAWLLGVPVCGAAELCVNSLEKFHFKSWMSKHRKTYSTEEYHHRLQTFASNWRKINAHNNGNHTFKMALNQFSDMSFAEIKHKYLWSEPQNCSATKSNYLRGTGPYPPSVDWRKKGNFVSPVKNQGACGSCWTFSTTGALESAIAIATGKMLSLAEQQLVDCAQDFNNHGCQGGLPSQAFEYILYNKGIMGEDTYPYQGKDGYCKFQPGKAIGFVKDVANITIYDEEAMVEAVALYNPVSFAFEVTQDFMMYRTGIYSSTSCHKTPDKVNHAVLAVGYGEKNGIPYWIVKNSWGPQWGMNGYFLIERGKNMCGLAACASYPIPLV

Cathepsin S = Cathepsin S (Homo sapiens, UniProt P25774); assay: Inhibition of 10 uM Cbz-Val-Val-Arg-AMC binding to human cathepsin S in fluorescence assay
[10] = biological target: T3, Cathepsin (L and K) (Homo sapiens) (UniProt P43235+P07711); assay: (§1) Relative binding to human cathepsins L and K; assay type: protein assay
[11] = biological target: T3, Cathepsin (L and K) (Homo sapiens); assay: as §1; assay type: protein assay; remark: listed apart in the source
Pro-cathepsin H = biological target: T4, Pro-cathepsin H (Homo sapiens, UniProt P09668); assay: Inhibition of 50 uM L-Arg-beta-naphthalamide binding to human cathepsin H in fluorescence assay
T4 sequence (P09668 whole entry): T2 sequence (whole entry)

[12] = Terminal half-life was determined in rats upon intravenous administration as a solution in 30% hydroxypropyl-beta-cyclodextrin, pH = 3.5; assay type: ADME, organism-based; conditions: rat, in vivo
[13] = biological target: Cathepsin (H and K) (Homo sapiens) (UniProt P09668+P43235); assay: Relative binding affinity for human cathepsins H and K; assay type: protein assay

Sequence of Cathepsin S (P25774 whole entry): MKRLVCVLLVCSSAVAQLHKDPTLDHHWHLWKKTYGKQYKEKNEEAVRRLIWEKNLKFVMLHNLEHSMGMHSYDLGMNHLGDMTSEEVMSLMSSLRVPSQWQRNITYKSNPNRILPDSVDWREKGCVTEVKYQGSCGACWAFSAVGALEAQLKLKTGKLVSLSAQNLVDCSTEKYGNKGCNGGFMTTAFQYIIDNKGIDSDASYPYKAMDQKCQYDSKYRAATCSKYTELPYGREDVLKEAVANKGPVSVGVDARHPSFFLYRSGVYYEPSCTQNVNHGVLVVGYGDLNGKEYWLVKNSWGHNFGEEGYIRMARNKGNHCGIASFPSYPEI
Sequence of Procathepsin L (P07711 whole entry): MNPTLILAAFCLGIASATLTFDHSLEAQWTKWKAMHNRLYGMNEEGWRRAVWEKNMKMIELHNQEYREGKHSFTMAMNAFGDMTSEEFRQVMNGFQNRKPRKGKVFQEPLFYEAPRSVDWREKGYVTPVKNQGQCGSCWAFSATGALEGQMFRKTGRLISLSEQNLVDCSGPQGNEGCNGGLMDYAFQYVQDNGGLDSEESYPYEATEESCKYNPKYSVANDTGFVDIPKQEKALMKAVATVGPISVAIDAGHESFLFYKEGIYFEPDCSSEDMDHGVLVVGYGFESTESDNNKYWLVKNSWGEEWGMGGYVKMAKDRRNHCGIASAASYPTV
T3 sequence (P07711 whole entry, looked up, one chain of several): as the sequence (P07711 whole entry) above

| Structure (SMILES) | IC50 (Cathepsin K) [nM] | Vd [1] [L/kg] | bioavailability [2] [%] | half-life [3] [h] | Papp A→B [4] [×10⁻⁶ cm/s] | clearance [5] [mL/min/kg] | solubility thermodynamic [6] [µg/mL] | half-life [7] [h] | Ratio [8] | IC50 (Cathepsin B) [nM] | IC50 (Procathepsin L) [nM] | Ratio [9] | IC50 (Cathepsin S) [nM] | Ratio [10] | Ratio [11] | IC50 (Pro-cathepsin H) [nM] | half-life [12] [h] | Ratio [13] |
| --- | --- | --- | --- | --- | --- | --- | --- | --- | --- | --- | --- | --- | --- | --- | --- | --- | --- | --- |
| CCCC[C@H](NC(=O)OC1(Cc2ccccc2)CCCCC1)C(=O)C(=O)N[C@H](C)c1ccccc1 | 210 | – | – | – | – | – | – | – | – | – | – | – | – | – | – | – | – | – |
| C[C@@H](NC(=O)C(=O)[C@H](CCCCNC(=O)N1CCOCC1)NC(=O)OCC1(Cc2ccncc2)CCC1)c1ccccc1 | 7.6 | 0.66 | 8.1 | 1.23 | 1.4 | 27 | 300 (≈ 505 µM) | – | – | – | – | – | – | – | – | – | – | – |
| CNC(=O)NCCCC[C@H](NC(=O)OCC1(Cc2c(F)cccc2F)CCC1)C(=O)C(=O)N[C@H](C)c1ccccc1 | 24 | 1.6 | 15 | – | 14 | 33 | 20 (≈ 34.9 µM) | 1.57 | – | – | – | – | – | – | – | – | – | – |
| CCCC[C@H](NC(=O)OCC1(Cc2ccc(F)cc2)CCC1)C(=O)C(=O)Nc1ccn[nH]1 | 0.83 | – | 31 | – | 15 | 45 | 150 (≈ 337 µM) | 2 | 6.3 | > 500 | 330 | > 600 | 5.2 | > 600 | 390 | > 500 | – | – |
| C[C@@H](NC(=O)C(=O)[C@H](CCCCNC(=O)N1CCOCC1)NC(=O)OCC1(Cc2ccc(F)cc2)CCC1)c1ccccc1 | 13 | 4.2 | 38 | 1.83 | 47 | 43 | 90 (≈ 147 µM) | – | 2.1 | > 5000 | 680 | – | 27 | – | – | > 5000 | – | – |
| CN(C)S(=O)(=O)NCCCC[C@H](NC(=O)OCC1(Cc2ccc(F)cc2)CCC1)C(=O)C(=O)NCc1cccnc1 | 40 | 0.42 | 18 | – | 6.9 | 9.6 | 30 (≈ 50.7 µM) | – | 3.2 | > 5000 | > 5000 | > 120 | 130 | > 120 | > 120 | > 5000 | 4.5 | – |
| CCCC[C@H](NC(=O)OCC1(CCc2ccccc2)CCC1)C(=O)C(=O)N[C@H](C)c1ccccc1 | 24 | – | – | – | – | – | – | – | 1.4 | > 2000 | 1600 | – | 34 | 67 | – | > 2000 | – | > 83 |
| CCCC[C@H](NC(=O)OC1(Cc2ccccc2)CCC1)C(=O)C(=O)N[C@H](C)c1ccccc1 | 710 | – | – | – | – | – | – | – | – | – | – | – | – | – | – | – | – | – |
| CCCC[C@H](NC(=O)OC(C)(C)Cc1ccccc1)C(=O)C(=O)N[C@H](C)c1ccccc1 | 630 | – | – | – | – | – | – | – | – | – | – | – | – | – | – | – | – | – |
| CCCC[C@H](NC(=O)OCC1(Cc2ccccc2)CCC1)C(=O)C(=O)N[C@H](C)c1ccccc1 | 8.5 | – | – | – | – | – | – | – | 2.4 | 3600 | 1300 | > 580 | 20 | 150 | – | > 5000 | – | > 580 |
| CCCC[C@H](NC(=O)OC(CC)(CC)Cc1ccccc1)C(=O)C(=O)N[C@H](C)c1ccccc1 | 150 | – | – | – | – | – | – | – | – | – | – | – | – | – | – | – | – | – |
| CCCC[C@H](NC(=O)OCC1(CCCc2ccccc2)CCC1)C(=O)C(=O)N[C@H](C)c1ccccc1 | 17 | – | – | – | – | – | – | – | 1 | > 2000 | 1300 | > 120 | 17 | > 120 | 76 | > 2000 | – | – |
| CCCC[C@H](NC(=O)OCC1(Cc2ccccc2)CCCC1)C(=O)C(=O)N[C@H](C)c1ccccc1 | 26 | – | – | – | – | – | – | – | 0.4 | > 5000 | 2200 | > 190 | 11 | 85 | – | > 5000 | – | > 190 |
| CCCC[C@H](NC(=O)OCC(C)(C)Cc1ccccc1)C(=O)C(=O)N[C@H](C)c1ccccc1 | 13 | – | – | – | – | – | – | – | 1.5 | > 5000 | 1200 | > 380 | 20 | 92 | – | > 5000 | – | > 380 |
| CCCC[C@H](NC(=O)OC1(Cc2ccccc2)CCCC1)C(=O)C(=O)N[C@H](C)c1ccccc1 | 25 | – | – | – | – | – | – | – | 17 | > 12000 | 3000 | – | 430 | 120 | – | > 12000 | – | > 480 |
| CCCC[C@H](NC(=O)OCC(C)(C)c1ccccc1)C(=O)C(=O)N[C@H](C)c1ccccc1 | 65 | – | – | – | – | – | – | – | 4.2 | 5000 | 3000 | – | 270 | 46 | – | > 5000 | – | > 77 |

Source: ChEMBL document CHEMBL1137872, “Potent and selective P2-P3 ketoamide inhibitors of cathepsin K with good pharmacokinetic properties via favorable P1', P1, and/or P3 substitutions” (Bioorg Med Chem Lett, 2004)
